Measurements as given in article PMC5548886 (Cancer Medicine, 2017).

Key:
Assay in all cases: IHC of tumor biopsies, H-score change on-treatment vs pretreatment
Format in all cases: in vivo, human
p53 = tested on: p53
Experimental: (§1) Pharmacodynamic markers were examined using peripheral blood samples, tumor and nevi biopsies (when available) and tumor imaging. BRAF mutation status was determined by Sanger sequencing. Pharmacodynamic markers analyzed, in available tumor/nevus samples obtained before treatment or archival tissue and during treatment on cycle 1, day 8 or day 15, including cytoplasmic p‐MEK, p‐ERK, BIM, c‐KIT, p‐AKT473, pS6 and PTEN, and nuclear p‐ERK, Ki‐67, PARP, cyclin D1, MITF, p27, and p53. Biomarker expression was determined by calculating the percentage of change in the H‐score (14) between on‐treatment and fresh/archival pretreatment specimens. Blood levels of VEGFR‐2 and were assessed before and at multiple time points while on treatment using enzyme‐linked immunosorbent assay (ELISA). […] Changes in standard uptake value (SUV) were determined by a blinded, independent central imaging review panel. Complete metabolic response (CMR) was complete resolution of tumor FDG‐PET uptake so SUV is the same as background. Partial metabolic response (PMR) decrease in sum of the tumor SUV of ≥25% from the baseline scan. Progressive metabolic disease (PMD) was defined as an increase in tumor SUV of ≥25% from the baseline scan, or the appearance of new FDG‐PET uptake in metastatic lesions. Stable metabolic disease (SMD) was defined as a change in tumor SUV between the PMR and PMD criteria.

p-AKT473 = tested on: p-AKT473
Experimental: as §1

pS6 = tested on: pS6
Experimental: as §1

cyclin D1 = tested on: cyclin D1
Experimental: as §1

MITF = tested on: MITF
Experimental: as §1

c-KIT = tested on: c-KIT
Experimental: as §1

cytoplasmic p-ERK = tested on: cytoplasmic p-ERK
Experimental: as §1

Cn1c(Nc2ccc(C(F)(F)F)cc2)nc2cc(Oc3ccnc(-c4ncc(C(F)(F)F)[nH]4)c3)ccc21 [RAF265]
P53 % change vs pretreatment, Mean (SD) (p53; All patients, n 20): +42.14 (195.033) %
P53 % change vs pretreatment, Mean (SD) (p53; DL 5, n 2): +82.33(190.5) %
P53 % change vs pretreatment, Median (p53; DL 5, n 2): +82.4%
P53 % change vs pretreatment, Mean (SD) (p53; DL 6, n 4): +49.32 (123.273) %
P53 % change vs pretreatment, Median (p53; DL 6, n 4): -3.8%
P53 % change vs pretreatment, Mean (SD) (p53; DLs 1 - 4, n 10): -27.30 (49.484) %
P53 % change vs pretreatment, Median (p53; DLs 1 - 4, n 10): -29.2%
P53 % change vs pretreatment, Mean (SD) (p53; DLs 7 and 7.1, n 4): +188.5 (400.62) %
P53 % change vs pretreatment, Median (p53; DLs 7 and 7.1, n 4): 0%
PAKT473 % change vs pretreatment, Mean (SD) (p-AKT473; All patients, n 19): +1.2 (105.4) %
PAKT473 % change vs pretreatment, Median (p-AKT473; All patients, n 19): -4.6%
PAKT473 % change vs pretreatment, Mean (SD) (p-AKT473; DL 5, n 1): -4.6%
PAKT473 % change vs pretreatment, Median (p-AKT473; DL 5, n 1): -4.6%
p-AKT, median decrease (p-AKT473; DL 6): 46.7%
PAKT473 % change vs pretreatment, Mean (SD) (p-AKT473; DL 6, n 4): -48.4(55.9) %
PAKT473 % change vs pretreatment, Median (p-AKT473; DL 6, n 4): -46.7%
PAKT473 % change vs pretreatment, Mean (SD) (p-AKT473; DLs 1 - 4, n 11): +20.1(132.9) %
PAKT473 % change vs pretreatment, Median (p-AKT473; DLs 1 - 4, n 11): -20%
PAKT473 % change vs pretreatment, Mean (SD) (p-AKT473; DLs 7 and 7.1, n 3): 0%
PAKT473 % change vs pretreatment, Median (p-AKT473; DLs 7 and 7.1, n 3): 0%
PS6 % change vs pretreatment, Mean (SD) (pS6; All patients, n 19): +6.9 (70.8) %
PS6 % change vs pretreatment, Median (pS6; All patients, n 19): -13%
PS6 % change vs pretreatment, Mean (SD) (pS6; DL 5, n 1): +255.6%
PS6 % change vs pretreatment, Median (pS6; DL 5, n 1): +255.6%
pS6, median decrease (pS6; DL 6): 35.8%
PS6 % change vs pretreatment, Mean (SD) (pS6; DL 6, n 6): -20.6 (29.1) %
PS6 % change vs pretreatment, Median (pS6; DL 6, n 6): -35.8%
PS6 % change vs pretreatment, Mean (SD) (pS6; DLs 1 - 4, n 8): -16.8 (20.9) %
PS6 % change vs pretreatment, Median (pS6; DLs 1 - 4, n 8): -18.9%
PS6 % change vs pretreatment, Mean (SD) (pS6; DLs 7 and 7.1, n 4): 33.4 (55.7) %
PS6 % change vs pretreatment, Median (pS6; DLs 7 and 7.1, n 4): +16.3%
Cyclin D1 % change vs pretreatment, Mean (SD) (cyclin D1; All patients, n 23): +0.19 (93.7) %
Cyclin D1 % change vs pretreatment, Median (cyclin D1; All patients, n 23): -25%
Cyclin D1 % change vs pretreatment, Mean (SD) (cyclin D1; DL 5, n 3): +56.8 (125.6) %
Cyclin D1 % change vs pretreatment, Median (cyclin D1; DL 5, n 3): +5.00%
Cyclin D1 % change vs pretreatment, Mean (SD) (cyclin D1; DL 6, n 5): -49.12 (30.7) %
Cyclin D1 % change vs pretreatment, Median (cyclin D1; DL 6, n 5): -48.9%
Cyclin D1 % change vs pretreatment, Mean (SD) (cyclin D1; DLs 1 - 4, n 10): -4.5 (95) %
Cyclin D1 % change vs pretreatment, Median (cyclin D1; DLs 1 - 4, n 10): -24%
Cyclin D1 % change vs pretreatment, Mean (SD) (cyclin D1; DLs 7 and 7.1, n 5): +25 (113.6) %
Cyclin D1 % change vs pretreatment, Median (cyclin D1; DLs 7 and 7.1, n 5): 0%
cyclin D1, median decrease (cyclin D1; in vivo): 25%
MITF % change vs pretreatment, Mean(SD) (MITF; All patients, n 21): +197.3(856.9) %
MITF % change vs pretreatment, Median (MITF; All patients, n 21): -13.2%
MITF % change vs pretreatment, Mean(SD) (MITF; DL 5, n 2): +11.8 (23.7) %
MITF % change vs pretreatment, Median (MITF; DL 5, n 2): +11.8%
MITF % change vs pretreatment, Mean(SD) (MITF; DL 6, n 6): +20.1 (111.3) %
MITF % change vs pretreatment, Median (MITF; DL 6, n 6): -6.60%
MITF % change vs pretreatment, Mean(SD) (MITF; DLs 1 - 4, n 9): +400.6(1312.5) %
MITF % change vs pretreatment, Median (MITF; DLs 1 - 4, n 9): -27.3%
MITF % change vs pretreatment, Mean(SD) (MITF; DLs 7 and 7.1, n 4): +98.6 (239.7) %
MITF % change vs pretreatment, Median (MITF; DLs 7 and 7.1, n 4): 0%
CKIT % change vs pretreatment, Median (c-KIT; All patients, n 8): 0%
CKIT % change vs pretreatment, Mean (SD) (c-KIT; DL 6, n 1): 0%
CKIT % change vs pretreatment, Median (c-KIT; DL 6, n 1): 0%
CKIT % change vs pretreatment, Mean (SD) (c-KIT; DLs 1 - 4, n 4): -60 (80) %
CKIT % change vs pretreatment, Median (c-KIT; DLs 1 - 4, n 4): -100%
CKIT % change vs pretreatment, Mean (SD) (c-KIT; DLs 7 and 7.1, n 3): 0%
CKIT % change vs pretreatment, Median (c-KIT; DLs 7 and 7.1, n 3): 0%
p-ERK IHC staining, on-treatment versus pretreatment (cytoplasmic p-ERK; 23 patients): dose‐dependent p‐ERK inhibition
cytoplasmic pERK % change vs pretreatment, Mean (SD) (cytoplasmic p-ERK; All patients, n 13): -3.6 (48.6) %
cytoplasmic pERK % change vs pretreatment, Median (cytoplasmic p-ERK; All patients, n 13): -11.8%
